Laboratory results reported in ChEMBL document CHEMBL1155399, “Novel glitazones: design, synthesis, glucose uptake and structure-activity relationships” (Bioorg Med Chem Lett, 2010).

How the values were obtained:
[1] = Antidiabetic activity in Wistar rat hemidiaphragm assessed as glucose uptake at 2 mg after 45 mins by GOD/POD enzymatic method in absence of insulin; settings: Diaphragm
[2] = Antidiabetic activity in Wistar rat hemidiaphragm assessed as glucose uptake at 2 mg after 45 mins by GOD/POD enzymatic method in presence of insulin; settings: Diaphragm

SMILES	Activity [1] [mg/g]	Activity [2] [mg/g]
COc1cc(/C=C2/SC(=O)NC2=O)ccc1OCC(=O)Nc1ccccc1C(N)=O	10	29
COc1cc(/C=C2/SC(=O)NC2=O)ccc1OCC(=O)NC1CCCCC1	9.5	27.2
COc1cc(/C=C2/SC(=S)NC2=O)ccc1OCC(=O)Nc1ccccc1	8	24.8
COc1ccc(NC(=O)COc2ccc(/C=C3/SC(=S)NC3=O)cc2OC)cc1	9.75	33.5
COc1cc(/C=C2/SC(=O)NC2=O)ccc1OCC(=O)Nc1ccccc1[N+](=O)[O-]	9.75	26.2
COc1cc(/C=C2/SC(=S)NC2=O)ccc1OCC(=O)NCc1ccccc1	10.2	26.8
COc1ccc(NC(=O)COc2ccc(/C=C3/SC(=O)NC3=O)cc2OC)cc1	10.8	36.2
CN(CCOc1ccc(CC2SC(=O)NC2=O)cc1)c1ccccn1 (configuration not stated)	11.2	35.2
COc1cc(/C=C2/SC(=S)NC2=O)ccc1OCC(=O)Nc1ccccc1[N+](=O)[O-]	9	25.5
COc1cc(/C=C2/SC(=S)NC2=O)ccc1OCC(=O)Nc1ccccn1	9.75	30
COc1ccc(NC(=O)COc2ccc(CC3SC(=O)NC3=O)cc2OC)cc1 (configuration not stated)	11.2	30.2
COc1cc(/C=C2/SC(=O)NC2=O)ccc1OCC(=O)NCc1ccccc1	10.5	31.8
COc1cc(/C=C2/SC(=S)NC2=O)ccc1OCC(=O)NC1CCCCC1	11.8	30
COc1ccc(NC(=O)COc2ccc(CC3SC(=S)NC3=O)cc2OC)cc1 (configuration not stated)	9.5	28.2
COc1cc(/C=C2/SC(=O)NC2=O)ccc1OCC(=O)Nc1ccccn1	12.2	32
COc1cc(/C=C2/SC(=O)NC2=O)ccc1OCC(=O)Nc1ccccc1	12	28.5
